Reference: patent US20240374677A1, “VARIOUS COMPOUNDS FOR THE TREATMENT OF NEUROFIBROMATOSIS TYPE 1” (PUSAN NATIONAL UNIVERSITY INDUSTRY-UNIVERSITY COOPERATION …, priority 2023, published 2024)

Experiments:
[1] = test system: skin cells NF-09, NF-21, and NF-11 of NF1 patients; test: MTT assay in skin cells of NF1 patients; format: cell-based, human
Method: The cell proliferation inhibitory effect of PN-NF27 was confirmed by an MTT method using skin cells NF-09, NF-21, and NF-11 of NF1 patients. […]
(§1) The cell proliferation inhibitory effect of PN-NF38 was confirmed using skin cells NF-09, NF-21, and NF-11 of NF1 patients. Specifically, skin fibroblasts (passage>8) incubated for 48 hours were treated with PN-NF38 at 0, 0.1, 1, 2.5, 5, and 10 μM for 24 hours, and then added with 3-(4,5-dimethylthiazol-2-yl)-2,5-diphenyltetrazolium bromide (MTT) and reacted for 1 hours, and then the absorbance was measured at 550 nm.
as §1, with “PN-NF41” for “PN-NF38”, “24” for “48”, “5” for “PN-NF38 at 0, 0.1, 1, 2.5, 5, and 10”, “μM of PN-NF41” for “μM”, “72” for “24”

NF1 protein [2] = test: Western blot of NF1 protein in A549 cells; format: cell-based, human; details: 5 μM, 6 hours, FIG. 10
Method: (§2) The effect of increasing NF1 protein in human renal epithelial-like cells (293T), human lung cancer cells (A549), and mouse embryonic fibroblasts (MEF) was analyzed using Western blot. Specifically, the cells incubated in a 10% FBS+DMEM culture medium for 48 hours were treated with 5 μM each of compounds for 6 hours, and then the quantified protein samples were subjected to electrophoresis. After electrophoresis, the proteins in the gel were transferred to a PVDF membrane and then Western blot was performed using NF1 antibody (Abcam, Cat#ab128054).

[3] = test system: A549GR (anticancer resistant) cells; test: MTT assay in A549GR cells; format: cell-based, human; details: various concentrations, 72 hours, FIG. 11
Method: (§3) Human lung cancer cells A549 and A549GR were treated with PN-NF27, PN-NF28, PN-NF30, PN-NF38, and PN-NF41, respectively, and then the MTT assay results were shown. Specifically, A549 and A549GR (anticancer resistant) cells incubated for 24 hours in a 96 well plate were treated with various concentrations of compounds for 72 hours, respectively, and then added with 10 μl of 3-(4,5-dimethylthiazole-2-yl)-2,5-diphenyltetrazolium bromide (MTT) and after 2 hours, the absorbance was measured at 550 nm.

NF1 protein [4] = test: Western blot of NF1 protein in skin cells of NF1 patients; format: cell-based, human; details: 1 μM; normal cells and NF-09, NF-21, NF-11 cells, FIG. 13
Method: as §2
The effect of increasing NF1 protein in skin cells NF-09, NF-21, and NF-11 of NF1 patients was analyzed using Western blot. A specific method was as described in Experimental Example 3.

NF1-GRD1 protein [5] = test: Nano-Glo HiBiT lytic assay of NF1-GRD1 protein in stable 293T cells; format: cell-based, human; details: for effect of increasing NF1 protein, times higher than control group: 293T cells stably expressing NF1-GRD1, treated 24 hours, luciferase activity vs DMSO-treated control, FIG. 8; for concentration showing the highest activity: 0-5.0 μM tested
NF1 protein [6] = test: Western blot of NF1 protein in 293T cells; format: cell-based, human; details: 5 μM, 6 hours, FIG. 10
Method: as §2

[7] = test system: human lung cancer cells A549; test: MTT assay in A549 cells; format: cell-based; details: A549, various concentrations, 72 hours, FIG. 11
Method: as §3

NF1 protein [8] = test: Western blot of NF1 protein in mouse embryonic fibroblasts (MEF); format: cell-based; details: for NF1 protein increasing effect (Western blot): MEF cells, 6 hours, compared to other substances, FIG. 10; for NF1 protein quantification (Western blot) vs control group: MEF
Method: as §2
In addition, the effect of increasing NF1 protein in mouse embryonic fibroblasts (MEF) was analyzed using Western blot. A specific method was as described in Experimental Example 3.
The effect of increasing NF1 protein in mouse embryonic fibroblasts (MEF) was analyzed using Western blot. A specific method was as described in Experimental Example 3.

NF1-GRD1 protein [9] = test: Nano-Glo HiBiT lytic assay of NF1-GRD1 protein in stable 293T cells; format: cell-based, human; details: FIG. 9; for treatment time at which the maximum effect was shown: 6 hours and 24 hours tested
Method: The cells were treated in the same manner as in Experimental Example 1 except that the treatment time was 6 hours and 24 hours, respectively, and the results of measuring the activity in each case were illustrated in FIG. 9.
The cells were treated in the same manner as in Experimental Example 1, except that the treatment time was 6 hours and 24 hours, respectively, and the concentration of PN-NF27 was 0 μM, 0.25 μM, 0.5 μM, 1.0 μM, and 5.0 μM, and the results of measuring the activity in each case were illustrated in FIG. 8.

[10] = test system: HCT-8, HCT-15, HCT-116, PANC1, and PC3 cells; test: MTT assay in colon, pancreatic and prostate cancer cells; format: cell-based, human; details: 0, 0.1, 0.5, 1, 5, 10 μM, 72 hours, FIG. 17
Method: The cell proliferation inhibitory effect of PN-NF30 was confirmed using human colon cancer cells HCT-8, HCT-15, and HCT-116, human pancreatic cancer cells PANC1, and human prostate cancer cells PC3. Specifically, the HCT-8, HCT-15, HCT-116, PANC1, and PC3 cells incubated for 24 hours in a 96 well plate were treated with compounds at concentrations of 0, 0.1, 0.5, 1, 5, and 10 μM for 72 hours, respectively, and then added with 10 μl of 3-(4,5-dimethylthiazole-2-yl)-2,5-diphenyltetrazolium bromide (MTT) and after 1 hours, the absorbance was measured at 550 nm.

| SMILES | cell proliferation (MTT) treated vs not treated ([1]; 1 μM (result text), 72 hours, normal cells and NF-09, NF-21, NF-11 cells, FIG. 15) | NF1 protein increasing effect (Western blot) (NF1 protein [2]) | cell proliferation (MTT) [3] | NF1 protein (Western blot) treated vs not treated (NF1 protein [4]) | effect of increasing NF1 protein, times higher than control group (NF1-GRD1 protein [5]) | activity compared with the case not treated (0 μM) (NF1-GRD1 protein [5]; PN-NF27 at 0.25, 0.5, 1.0, 5.0 μM, 6 hours and 24 hours, FIG. 12) | concentration showing the highest activity (NF1-GRD1 protein [5]; incubated for 24 hours, FIG. 12) [µM] | concentration showing the highest activity (NF1-GRD1 protein [5]; treated for 6 hours, FIG. 12) [µM] | NF1 protein increasing effect (Western blot) (NF1 protein [6]) | cell proliferation (MTT) [7] | NF1 protein increasing effect (Western blot) (NF1 protein [8]; 5 μM) | NF1 protein quantification (Western blot) vs control group (NF1 protein [8]; 1 μM, FIG. 14) | treatment time at which the maximum effect was shown (NF1-GRD1 protein [9]) [h] | maximum effect compared to the control group (NF1-GRD1 protein [9]; treatment time 6 hours) [fold] | cell proliferation (MTT), concentration dependence [10] | NF1 protein quantification (Western blot) vs control group (NF1 protein [8]; 5 μM, FIG. 16) | cell proliferation (MTT), concentration dependence ([1]; 0, 0.1, 1, 2.5, 5, 10 μM, 24 hours, FIG. 19) | cell viability (MTT) ([1]; 10 μM, 24 hours, FIG. 19) | NF1 protein quantification (Western blot) vs control group (NF1 protein [8]; 2 μM, FIG. 18) | maximum effect compared to the control group (NF1-GRD1 protein [9]; treatment time 24 hours) [fold] |
| --- | --- | --- | --- | --- | --- | --- | --- | --- | --- | --- | --- | --- | --- | --- | --- | --- | --- | --- | --- | --- |
| C/C=C(/C)C(=O)O[C@H]1C(C)=C[C@]23C(=O)[C@@H](C=C(COC(C)=O)[C@@H](O)[C@]12O)[C@H]1[C@@H](C[C@H]3C)C1(C)C [PN-NF27, 20-O-acetylingenol-3-angelate] | tended to be inhibited | superior to other substances | effectively inhibited | tended to increase | about 6 times | higher activity | 0.5 | 5.0 | excellent | effectively inhibited | superior to other substances | tended to increase | ≤ 6 | 24 | – | – | – | – | – | – |
| CN1CCc2cccc3c2[C@H]1Cc1ccc(O)c(O)c1-3.CN1CCc2cccc3c2[C@H]1Cc1ccc(O)c(O)c1-3.Cl.Cl.O [PN-NF30, R(−) Apomorphine hydrochloride hemihydrate, reference compound] | – | superior to other substances | effectively inhibited | – | about 2 times | – | – | – | – | effectively inhibited | – | – | – | – | tended to effectively inhibit cell proliferation as the concentration increased | tended to increase | – | – | – | – |
| C=C(NC(=O)C(=C)NC(=O)c1csc(C2=N[C@@H]3c4csc(n4)[C@H]4NC(=O)c5csc(n5)[C@H]([C@](C)(O)[C@@H](C)O)NC(=O)[C@H]5CSC(=N5)/C(=C/C)NC(=O)[C@H]([C@@H](C)O)NC(=O)c5csc(n5)[C@]3(CC2)NC(=O)[C@H](C)NC(=O)C(=C)NC(=O)[C@H](C)NC(=O)[C@H]([C@@H](C)CC)N[C@@H]2C=Cc3c([C@H](C)O)cc(nc3[C@H]2O)C(=O)O[C@@H]4C)n1)C(N)=O [PN-NF38, Thiostrepton] | – | superior to other substances | effectively inhibited | – | about 20 times | – | – | – | – | effectively inhibited | superior to other substances | – | 24 | – | – | – | tended to be effectively inhibited as the concentration of PN-NF38 cells increased | less than 0.3 | tended to increase | 11 |
